Experimental data taken from patent US20100273722A1, “MODIFIED MINIATURE PROTEINS” (Yale University, priority 2007, published 2010).
Where two headings read alike, the source gives them in different places. Residues, ends and D or L forms follow the SMILES beside them.

Tests used:
[1] = target: c-Src SH3 domain-GST fusion protein (Gallus gallus, UniProt P00523); assay: Fluorescence polarization direct binding assay, c-Src SH3; design: species or system chicken; details: 50 nM fluorescently labeled ligand, read-out: Kd, c-Src SH3
Protocol: Polarization was measured by excitation with vertically polarized light at 485 nm and the fluorescence emission detected at 530 nm in both the vertical and horizontal directions. An average of five measurements were recorded for each well. Samples were equilibrated at room temperature for 25 min before analysis, a time sufficient for the binding reactions to reach equilibrium. The polarization data were fit using Kaleidagraph v3.6 software to Eq. 5, which is derived from first principles without assumptions. […] In this equation, Pobs is the observed polarization value at any given concentration of target protein (GST•SH3 domain). Pmin is the polarization of peptide^Flu at 50 nM in the absence of target protein. Pmax is the maximum polarization of peptide^Flu at saturation with target protein. Kd is the equilibrium dissociation constant. […] Free fits are shown. Kd values were estimated as described.

[2] = target: T1, Hck kinase (Homo sapiens, UniProt P08631); assay: Hck kinase activation, NADH-coupled assay; type: biochemical; details: for Activity / Fold-Activation: Activator 50 micromolar; for Fold-Activation: rate with ligand / rate without ligand; for EC50: read-out: Kact (concentration of activator at half-maximal activation)
T1 construct: His6 (N); made in house; host or cells: HighFive insect cells, co-infected with Hck and Csk baculovirus
T1 sequence (P08631 whole entry): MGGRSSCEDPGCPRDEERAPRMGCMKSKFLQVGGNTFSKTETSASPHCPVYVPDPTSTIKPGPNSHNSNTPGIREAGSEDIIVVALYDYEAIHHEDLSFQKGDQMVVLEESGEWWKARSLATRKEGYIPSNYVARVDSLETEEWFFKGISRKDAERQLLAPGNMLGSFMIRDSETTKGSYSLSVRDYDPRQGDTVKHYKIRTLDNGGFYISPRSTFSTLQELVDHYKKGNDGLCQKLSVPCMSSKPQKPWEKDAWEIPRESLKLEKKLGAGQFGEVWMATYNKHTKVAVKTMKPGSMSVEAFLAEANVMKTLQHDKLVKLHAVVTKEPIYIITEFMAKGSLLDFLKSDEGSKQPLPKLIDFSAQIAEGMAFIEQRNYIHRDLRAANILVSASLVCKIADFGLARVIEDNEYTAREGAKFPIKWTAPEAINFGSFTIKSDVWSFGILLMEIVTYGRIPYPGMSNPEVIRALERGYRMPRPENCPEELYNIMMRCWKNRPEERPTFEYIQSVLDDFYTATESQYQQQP
Protocol: Activation of Hck kinase was measured using a validated NADH-coupled assay as described. Briefly, purified Hck kinase (15 micromolar) was first pre-incubated with 500 micromolar ATP and 20 mM MgCl2 for about 30 min on ice to initiate autophosphorylation of Y416. The autophosphorylated product (0.55 micromolar final concentration) was then incubated in Hck Reaction Buffer (20 mM MgCl2, 0.1 mM DTT, 20 μg/mL BSA, 100 mM HEPES (pH 7.5)) for 10 min at room temperature with the indicated concentration of Nef or miniature protein. At this time the remaining assay components (1 mM PEP, 0.2 mM NADH, 6 U pyruvate kinase (Type II from rabbit muscle, Sigma), 6 U L-lactic dehydrogenase (Type II from rabbit muscle, Sigma), 600 micromolar substrate peptide, and 500 micromolar ATP) were added to initiate the reaction (total volume 200 microliters) and the absorbance at 340 nm was monitored every 10 sec for 10 min using a Beckman DU 730 UVN is Spectrophotomer. The activation constant Kact for each ligand was calculated from the initial rate as a function of ligand concentration as previously described, using Eq. 6. Fold activation was calculated by dividing the rate in the presence of ligand by the rate in the absence of ligand.
va=Vact[L]/(Kact±[L]) Equation 6.
In this equation va is velocity measured in the presence of ligand minus the velocity measured in its absence; Vact is the maximal activated velocity minus the velocity measured in the absence of ligand; [L] is the concentration of activator and Kact is concentration of activator at half-maximal activation.

[3] = Sedimentation equilibrium analytical ultracentrifugation of aPP variants, monomer-n-mer fit (self-association); type: physicochemical; details: for n (stoichiometry of the self-associated complex): monomer-n-mer fit; for n (stoichiometry of the self-associated complex) / lnKA when n = 4 / % monomer at 30 μM: 25° C.; for lnKA when n = 4: monomer-tetramer; for Kd (self-association, tetramer): n = 4, 25° C., calculated from ln KA; for % monomer at 30 μM: 30 μM peptide
Protocol: Analytical ultracentrifugation experiments were performed using peptide solutions prepared in Tris.Cl buffer (25 mM Tris base, 50 mM NaCl, (pH 8.0)) at the appropriate concentrations (5 micromolar to 200 micromolar). Samples were then centrifuged to equilibrium at 25° C. at 42,000, 50,000, and 60,000 rpm. Data were collected with a 0.001 cm step size and successive scans were initiated at 2 h intervals. Samples were judged to have reached equilibrium when the radial concentration gradient remained unchanged over three successive scans using the Match module of Heteroanalysis software v1.1.19. The solvent density (ρ, rho) and partial specific volume ( ν, nu) were calculated using the Sedimentation Interpretation Program “Sednterp” software v1.08.
The data for each peptide (multiple concentrations at three speeds) was first fit globally to an equation describing the sedimentation of an ideal species of molecular weight Mn (Eq. 1) using Heteroanalysis software v1.1.19:
where C represents the concentration of the sedimenting species at distances r and r0 cm from the center of rotation; ν (nu) is the partial specific volume of the sedimenting species in cc/g; ρ (rho) is the density of the supporting buffer in g/cc; ω (omega) is the angular velocity of the rotor (radians/s); Mn is the “molar” molecular weight of sedimenting species (g/mol); R is the universal gas constant (8.315×10^7 ergs K^−1 mol^−1) and T is the temperature in degrees Kelvin.
In order to quantify this self-association, the data for each peptide was next fit globally to a monomer-n-mer equilibrium model using Eq. 2:
where n is the stoichiometry of the self-associated complex. Errors were calculated for n and lnKA using f-statistics to two standard deviations.
Samples were prepared in PBS buffer and centrifuged at speeds of 42,000 (41), 50,000 (42), or 60,000 RPM (43) at 25° C. Experimental data are shown as points; lines indicate the best fit to a monomer-n-mer model described by Eq. 2.

| Kd ([1]; PBS pH 7.4) [nM] | Activity [2] [nmol/s] | Fold-Activation [2] | EC50 [2] [µM] | Kd [1] [nM] | n (stoichiometry of the self-associated complex) [3] | lnKA when n = 4 [3] | Kd (self-association, tetramer) [3] | % monomer at 30 μM [3] [%] | Molecule |
| --- | --- | --- | --- | --- | --- | --- | --- | --- | --- |
| 3680 ± 60 | 83.6 ± 6.0 | 8 ± 3 | – | – | – | – | – | – | CC[C@H](C)[C@H](NC(=O)[C@H](CC(C)C)NC(=O)[C@H](CC(=O)O)NC(=O)[C@H](CCC(=O)O)NC(=O)[C@@H](NC(=O)[C@@H]1CCCN1C(=O)[C@H](C)NC(=O)[C@H](CC(=O)O)NC(=O)[C@H](CC(=O)O)NC(=O)CNC(=O)[C@@H]1CCCN1C(=O)[C@H](CC(N)=O)NC(=O)[C@H](CCCNC(=N)N)NC(=O)[C@@H]1CCCN1C(=O)[C@@H]1CCCN1C(=O)[C@H](CC(C)C)NC(=O)[C@@H]1CCCN1C(=O)[C@@H]1CCCN1C(=O)[C@H](C)N)C(C)C)C(=O)N[C@@H](CCCNC(=N)N)C(=O)N[C@@H](Cc1ccccc1)C(=O)N[C@@H](Cc1ccc(O)cc1)C(=O)N[C@@H](CC(=O)O)C(=O)N[C@@H](CC(N)=O)C(=O)N[C@@H](CC(C)C)C(=O)N[C@@H](CCC(N)=O)C(=O)N[C@@H](CCC(N)=O)C(=O)N[C@@H](Cc1ccc(O)cc1)C(=O)N[C@@H](CC(C)C)C(=O)N[C@@H](CC(N)=O)C(=O)N[C@H](C(=O)N[C@H](C(=O)N[C@H](C(=O)N[C@@H](CCCNC(=N)N)C(=O)N[C@@H](Cc1c[nH]cn1)C(=O)N[C@@H](CCCNC(=N)N)C(=O)N[C@@H](Cc1ccc(O)cc1)C(N)=O)[C@@H](C)O)C(C)C)C(C)C [PP1] (H-APPLPPRNPGDDAPVEDLIRFYDNLQQYLNVVTRHRY-NH2) |
| 1300 ± 200 | 138.8 ± 7.6 | 13 ± 5 | 48 ± 13 | – | – | – | – | – | CC[C@H](C)[C@H](NC(=O)[C@H](CC(C)C)NC(=O)[C@H](CC(=O)O)NC(=O)[C@H](CCC(=O)O)NC(=O)[C@@H](NC(=O)[C@@H]1CCCN1C(=O)[C@H](C)NC(=O)[C@H](CC(=O)O)NC(=O)[C@H](CC(=O)O)NC(=O)CNC(=O)[C@H](CCCNC(=N)N)NC(=O)[C@H](CC(N)=O)NC(=O)[C@H](CCCNC(=N)N)NC(=O)[C@@H]1CCCN1C(=O)[C@@H]1CCCN1C(=O)[C@H](CC(C)C)NC(=O)[C@@H]1CCCN1C(=O)[C@@H]1CCCN1C(=O)[C@H](C)N)C(C)C)C(=O)N[C@@H](CCCNC(=N)N)C(=O)N[C@@H](Cc1ccccc1)C(=O)N[C@@H](Cc1ccc(O)cc1)C(=O)N[C@@H](CC(=O)O)C(=O)N[C@@H](CC(N)=O)C(=O)N[C@@H](CC(C)C)C(=O)N[C@@H](CCC(N)=O)C(=O)N[C@@H](CCC(N)=O)C(=O)N[C@@H](Cc1ccc(O)cc1)C(=O)N[C@@H](CC(C)C)C(=O)N[C@@H](CC(N)=O)C(=O)N[C@H](C(=O)N[C@H](C(=O)N[C@H](C(=O)N[C@@H](CCCNC(=N)N)C(=O)N[C@@H](Cc1c[nH]cn1)C(=O)N[C@@H](CCCNC(=N)N)C(=O)N[C@@H](Cc1ccc(O)cc1)C(N)=O)[C@@H](C)O)C(C)C)C(C)C [PP2] (H-APPLPPRNRGDDAPVEDLIRFYDNLQQYLNVVTRHRY-NH2) |
| – | 83.9 ± 5.4 | 7 ± 3 | 48 ± 22 | 350 ± 40 | – | – | – | – | CC[C@H](C)[C@H](NC(=O)[C@H](CC(C)C)NC(=O)[C@H](CC(=O)O)NC(=O)[C@H](CCC(=O)O)NC(=O)[C@@H](NC(=O)[C@@H]1CCCN1C(=O)[C@H](C)NC(=O)[C@H](CC(=O)O)NC(=O)[C@H](CCCNC(=N)N)NC(=O)[C@@H]1CCCN1C(=O)[C@H](CCCNC(=N)N)NC(=O)[C@H](CC(N)=O)NC(=O)[C@H](CCCNC(=N)N)NC(=O)[C@@H]1CCCN1C(=O)[C@@H]1CCCN1C(=O)[C@H](CC(C)C)NC(=O)[C@@H]1CCCN1C(=O)[C@@H]1CCCN1C(=O)[C@H](C)N)C(C)C)C(=O)N[C@@H](CCCNC(=N)N)C(=O)N[C@@H](Cc1ccccc1)C(=O)N[C@@H](Cc1ccc(O)cc1)C(=O)N[C@@H](CC(=O)O)C(=O)N[C@@H](CC(N)=O)C(=O)N[C@@H](CC(C)C)C(=O)N[C@@H](CCC(N)=O)C(=O)N[C@@H](CCC(N)=O)C(=O)N[C@@H](Cc1ccc(O)cc1)C(=O)N[C@@H](CC(C)C)C(=O)N[C@@H](CC(N)=O)C(=O)N[C@H](C(=O)N[C@H](C(=O)N[C@H](C(=O)N[C@@H](CCCNC(=N)N)C(=O)N[C@@H](Cc1c[nH]cn1)C(=O)N[C@@H](CCCNC(=N)N)C(=O)N[C@@H](Cc1ccc(O)cc1)C(N)=O)[C@@H](C)O)C(C)C)C(C)C [PP3] (H-APPLPPRNRPRDAPVEDLIRFYDNLQQYLNVVTRHRY-NH2) |
| – | – | – | – | – | 3.77 | when n = 4 26.28 | 3.9×10^−12 M^3 | – | GPSQPTAPGDDAPVEDLIRFYDNLQQYLNVVTRHRY [aPP^Y7A] |
| – | – | – | – | – | 4.06 | when n = 4 29.34 | 1.8 × 10^−13 M^3 | 78 | GPSQPTAPGDDAPVEDLIRFYDNLRQYLNVVTRHRY [aPP^Y7AQ25R] |
| – | – | – | – | – | 4.48 | when n = 4 27.92 | 7.5 × 10^−13 M^3 | 90 | GPSQPTAPGDDAVPEDLIRFYDNLQQYLNVVTRHRY [aPP^Y7AP13VV14P] |
| – | – | – | – | – | 3.87 | when n = 4 23.29 | 7.6×10^−11 M^3 | – | GPSQPTYPGDDAPVEDLIRAYDNLQQYLNVVTRHRY [aPP^F20A] |

| Molecule | Kd ([1]; PBS pH 7.4) [nM] | Activity [2] [nmol/s] | Fold-Activation [2] | EC50 [2] [µM] | Kd [1] [nM] | n (stoichiometry of the self-associated complex) [3] | lnKA when n = 4 [3] | Kd (self-association, tetramer) [3] | % monomer at 30 μM [3] [%] |
| --- | --- | --- | --- | --- | --- | --- | --- | --- | --- |
| aPP^Y7AT6E: SEQ ID NO: 8, CPSQPEAPGDDAPVEDLIRFYDNLQQYLNVVTRHRY (Table 1 prints GPSQPE...) | – | – | – | – | – | 3.88 | – | 2.0 × 10^−13 M^3 | 79 |
